Source: ChEMBL document CHEMBL3627697, “Aminopyrazolo[1,5-a]pyrimidines as potential inhibitors of Mycobacterium tuberculosis: Structure activity relationships and ADME characterization” (Bioorg Med Chem, 2015)
pIC50: −log10 of the molar value. In brackets after ≈: the same amount, converted by molar mass.

What was measured:
[1] = tested on: Mycobacterium tuberculosis; assay: Antimycobacterial activity against Mycobacterium tuberculosis H37Rv in 7H9/ADC/Tween medium measured at day 14 by Alamar Blue assay; type: functional; details: 336 h
[2] = Kinetic solubility of the compound at pH 7.4 after 2 hrs by shake flask method-based HPLC-DAD analysis; type: physicochemical; details: buffer, read-out: Kinetic_solubility
CHO = assay: Cytotoxicity against CHO cells assessed as cell viability by MTT assay; type: cell-based; details: Cricetulus griseus
[3] = tested on: Mycobacterium tuberculosis; assay: Antimycobacterial activity against Mycobacterium tuberculosis H37Rv in GAST medium with low Fe level measured at day 14 by Alamar Blue assay; type: functional; details: 336 h
[4] = tested on: Mycobacterium tuberculosis; assay: Antimycobacterial activity against Mycobacterium tuberculosis H37Rv in GAST-Fe medium measured at day 14 by Alamar Blue assay; type: functional; details: 336 h
[5] = Metabolic stability in mouse liver microsomes assessed as compound remaining at 0.1 uM measured at 30 mins by LC-MS/MS analysis; type: ADME; details: read-out: Stability
[6] = Metabolic stability in human liver microsomes assessed as compound remaining at 0.1 uM measured at 30 mins by LC-MS/MS analysis; type: ADME; details: read-out: Stability
[7] = Metabolic stability in rat liver microsomes assessed as compound remaining at 0.1 uM measured at 30 mins by LC-MS/MS analysis; type: ADME; details: read-out: Stability

Structure (SMILES)	MIC99 [1] [µM]	solubility kinetic at 2 h [2] [µM]	further results
Cc1cc(NCc2ccccn2)n2ncc(-c3ccc(Cl)cc3)c2n1	10 (≈ 3.5 µg/mL)	< 5	
Cc1cc(NCc2ccccn2)n2ncc(-c3ccccc3)c2n1	10 (≈ 3.15 µg/mL)	< 5	
Cc1cc(NCc2ccccn2)n2ncc(-c3ccc(F)cc3)c2n1	5 (≈ 1.67 µg/mL)	< 5	
Cc1cc(NCc2cccnc2)n2nc(C)c(-c3ccccc3)c2n1	> 160	110 (≈ 36.3 µg/mL)	
Cc1cc(NCc2ccncc2)n2nc(C)c(-c3ccccc3)c2n1	> 160	134 (≈ 44 µg/mL)	
Cc1cc(NCc2ncccn2)n2nc(C)c(-c3ccccc3)c2n1	80 (≈ 26.4 µg/mL)	37.9 (≈ 12.5 µg/mL)	
Cc1cc(NCc2cnccn2)n2nc(C)c(-c3ccccc3)c2n1	80 (≈ 26.4 µg/mL)	7.1 (≈ 2.35 µg/mL)	
Cc1cc(NCCc2ccccn2)n2nc(C)c(-c3ccccc3)c2n1	> 160	< 5	
Cc1cc(NCCCc2ccccn2)n2nc(C)c(-c3ccccc3)c2n1	80 (≈ 28.6 µg/mL)	5.9 (≈ 2.11 µg/mL)	
Cc1cc(Nc2ccccn2)n2nc(C)c(-c3ccccc3)c2n1	> 160	< 5	
Cc1cc(N(C)Cc2ccccn2)n2nc(C)c(-c3ccccc3)c2n1	> 160	17.5 (≈ 6.01 µg/mL)	
Cc1cc(OCc2ccccn2)n2nc(C)c(-c3ccccc3)c2n1	> 160	25.6 (≈ 8.46 µg/mL)	
Cc1cc(NCc2ncc[nH]2)n2nc(C)c(-c3ccccc3)c2n1	37 (≈ 11.8 µg/mL)	< 5	
Cc1cc(NCc2c[nH]cn2)n2nc(C)c(-c3ccccc3)c2n1	> 160	14.6 (≈ 4.65 µg/mL)	
Cc1cccc(CNc2cc(C)nc3c(-c4ccccc4)c(C)nn23)n1	> 160	< 5	
Cc1cc(NCc2ccco2)n2nc(C)c(-c3ccccc3)c2n1	> 160	< 5	
Cc1cc(NCc2cccs2)n2nc(C)c(-c3ccccc3)c2n1	> 160	< 5	
Cc1cc(NCc2nccs2)n2nc(C)c(-c3ccccc3)c2n1	> 160	108 (≈ 36.1 µg/mL)	
Cc1cc(NCc2ccc3ccccc3n2)n2nc(C)c(-c3ccccc3)c2n1	> 160	< 5	

Structure (SMILES)	MIC99 [1] [µM]	solubility kinetic at 2 h [2] [µM]	further results
Cc1cc(NCc2ccccn2)n2nc(C)c(-c3ccc(F)cc3)c2n1	5 (≈ 1.74 µg/mL)	< 5	
COc1ccc(-c2c(C)nn3c(NCc4ccccn4)cc(C)nc23)cc1	20 (≈ 7.19 µg/mL)	< 5	
COc1ccc(-c2cnn3c(NCc4ccccn4)cc(C)nc23)cc1	20 (≈ 6.91 µg/mL)	< 5	
Cc1ccc(-c2cnn3c(NCc4ccccn4)cc(C)nc23)cc1	5 (≈ 1.65 µg/mL)	< 5	
Cc1cc(NCc2ccccn2)n2ncc(-c3ccc(N(C)C)cc3)c2n1	20 (≈ 7.17 µg/mL)	< 5	
Cc1cc(NCc2ccccn2)n2ncc(-c3ccc(C(F)(F)F)cc3)c2n1	> 160	< 5	
Cc1cc(NCc2ccccn2)n2ncc(-c3ccc(C#N)cc3)c2n1	> 160	< 5	
Cc1cc(NCc2ccccn2)n2ncc(-c3cccc(F)c3)c2n1	2.5 (≈ 0.833 µg/mL)	5 (≈ 1.67 µg/mL)	
Cc1cc(NCc2ccccn2)n2ncc(-c3ccc(F)c(Cl)c3)c2n1	1.25 (≈ 0.46 µg/mL)	< 5	pIC50 (CHO): 4.70; MIC99 [3]: > 160 µM; MIC99 [4]: > 160 µM
Cc1cc(NCc2ccccn2)n2ncc(-c3ccccc3C)c2n1	1.25 (≈ 0.412 µg/mL)	< 5	
Cc1cc(NCc2ccccn2)n2ncc(-c3c(C)cccc3C)c2n1	> 160	< 5	
Cc1cc(NCc2ccccn2)n2ncc(-c3ccc(F)cc3F)c2n1	> 160	< 5	
Cc1cc(NCc2ccccn2)n2ncc(-c3cc(F)c(F)c(F)c3)c2n1	2.5 (≈ 0.923 µg/mL)	< 5	
Cc1cc(NCc2ccccn2)n2ncc(-c3ccco3)c2n1	40 (≈ 12.2 µg/mL)	48.8 (≈ 14.9 µg/mL)	
Cc1cc(NCc2ccccn2)n2ncc(-c3ccsc3)c2n1	20 (≈ 6.43 µg/mL)	9 (≈ 2.89 µg/mL)	
Cc1cc(NCc2ccccn2)n2ncc(-c3ccncc3)c2n1	> 160	161 (≈ 51 µg/mL)	
Cc1cc(NCc2ccccn2)n2ncc(-c3ccn(C)n3)c2n1	> 160	188 (≈ 60 µg/mL)	
Cc1cc(NCc2ccccn2)n2ncc(-c3ccc(C(=O)Nc4ccccc4)cc3)c2n1	> 160	5 (≈ 2.17 µg/mL)	
Cc1cc(NCc2ccccn2)n2nc(C)c(Nc3ccccc3)c2n1	40 (≈ 13.8 µg/mL)	7.8 (≈ 2.69 µg/mL)	

Structure (SMILES)	MIC99 [1] [µM]	solubility kinetic at 2 h [2] [µM]	further results
Cc1cc(NCc2ccccn2)n2ncc(C3=CCC(F)(F)CC3)c2n1	5 (≈ 1.78 µg/mL)	5 (≈ 1.78 µg/mL)	
Cc1cc(NCc2ccccn2)n2ncc(C3=CCOCC3)c2n1	80 (≈ 25.7 µg/mL)	171 (≈ 54.9 µg/mL)	
Cc1cc(NCc2ccccn2)n2ncc(Br)c2n1	> 160	89.3 (≈ 28.4 µg/mL)	
Cc1cc(NCc2ccccn2)n2nc(C)cc2n1	5 (≈ 1.27 µg/mL)	> 200	
Cc1cc(NCC2CCCCN2)n2nc(C)c(-c3ccccc3)c2n1 (stereo not drawn)	> 160	189 (≈ 63.3 µg/mL)	remaining at 0.5 h, 0.1 µM [5]: 14%; remaining at 0.5 h, 0.1 µM [6]: 51.8%; remaining at 0.5 h, 0.1 µM [7]: 5.1%
CCN1CCCC1CNc1cc(C)nc2c(-c3ccccc3)c(C)nn12 (stereo not drawn)	> 160	172 (≈ 60.1 µg/mL)	remaining at 0.5 h, 0.1 µM [6]: 54%
Cc1cc(NCc2cccc[n+]2[O-])n2ncc(-c3ccccc3)c2n1	> 160	159 (≈ 52.7 µg/mL)	remaining at 0.5 h, 0.1 µM [5]: 12.3%; remaining at 0.5 h, 0.1 µM [6]: 99.7%; remaining at 0.5 h, 0.1 µM [7]: 61.2%
Cc1cc(NCc2nccn2C)n2nc(C)cc2n1	> 160	182 (≈ 46.7 µg/mL)	remaining at 0.5 h, 0.1 µM [5]: 85.1%; remaining at 0.5 h, 0.1 µM [6]: 100%; remaining at 0.5 h, 0.1 µM [7]: 80.6%
Cc1cc(NCc2ncnn2C)n2nc(C)c(-c3ccccc3)c2n1	> 160	185 (≈ 61.6 µg/mL)	remaining at 0.5 h, 0.1 µM [5]: 18.9%; remaining at 0.5 h, 0.1 µM [6]: 99.5%; remaining at 0.5 h, 0.1 µM [7]: 68.8%
Cc1cc(NCc2ccccn2)n2ncc(-c3ccc(O)cc3)c2n1	> 160	10.9 (≈ 3.61 µg/mL)	remaining at 0.5 h, 0.1 µM [5]: 41.4%; remaining at 0.5 h, 0.1 µM [6]: 99.3%; remaining at 0.5 h, 0.1 µM [7]: 60.1%
Cc1cc(NCc2ccccn2)n2ncc(-c3cccc(N)c3)c2n1	> 160	160 (≈ 52.8 µg/mL)	remaining at 0.5 h, 0.1 µM [5]: 55.1%; remaining at 0.5 h, 0.1 µM [6]: 89.5%; remaining at 0.5 h, 0.1 µM [7]: 56.8%
Cc1cc(NCc2ccccn2)n2ncc(-c3cccc(N(C)C)c3)c2n1	80 (≈ 28.7 µg/mL)	94.6 (≈ 33.9 µg/mL)	remaining at 0.5 h, 0.1 µM [5]: 7.9%; remaining at 0.5 h, 0.1 µM [6]: 33.7%; remaining at 0.5 h, 0.1 µM [7]: 4.5%
Cc1cc(NCc2ccccn2)n2ncc(-c3cncnc3)c2n1	160 (≈ 50.8 µg/mL)	111 (≈ 35.2 µg/mL)	
Cc1cc(NCc2ccccn2)n2ncc(-c3ccc(C(=O)NCCN(C)C)cc3)c2n1	> 160	189 (≈ 81.3 µg/mL)	
Cc1cc(NCc2ccccn2)n2nc(C)c(-c3cccnc3F)c2n1	10 (≈ 3.48 µg/mL)	< 5	remaining at 0.5 h, 0.1 µM [5]: 100%; remaining at 0.5 h, 0.1 µM [6]: 100%; remaining at 0.5 h, 0.1 µM [7]: 96.5%
Cc1cc(NCc2ccccn2)n2ncc(-c3ccc(F)cc3C)c2n1	> 160	42.3 (≈ 14.7 µg/mL)	
NC[C@H]1O[C@H](O[C@H]2[C@H](O)[C@@H](O[C@H]3O[C@H](CO)[C@@H](O)[C@H](N)[C@H]3O)[C@H](N)C[C@@H]2N)[C@H](O)[C@@H](O)[C@@H]1O [KANAMYCIN]	6.45 (≈ 3.13 µg/mL)		
CO[C@H]1/C=C/O[C@@]2(C)Oc3c(C)c(O)c4c(O)c(c(/C=N/N5CCN(C)CC5)c(O)c4c3C2=O)NC(=O)/C(C)=C\C=C\[C@H](C)[C@H](O)[C@@H](C)[C@@H](O)[C@@H](C)[C@H](OC(C)=O)[C@@H]1C [RIFAMPIN]	0.012 (≈ 0.00988 µg/mL)		
